Laboratory results reported in PubChem BioAssay AID330 (DTP/NCI, 2004).
“And” between values parts separate entries of the source, which are not always exact repeats. Equal values may be shown once. Inconclusive results and toxic doses are left out. Rule for the calls: active = survival T/C of 150% or more; inactive = T/C below 125% in these data.

System: P388 leukemia ip, CD2F1 mice, survival T/C
Assay: NCI In Vivo Anticancer Drug Screen. Data for tumor model P388 Leukemia (intraperitoneal) in CD2F1 (CDF1) mice
Details: endpoint: median survival time, higher = longer survival
Procedure, shortened: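 Mice carrying the transplanted tumor received test compound or vehicle. Survival was recorded in each group, and the value is the treated-group measurement divided by that of the vehicle-treated control group.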

[1] = dose: 50.0 mg/kg/injection, schedule: Q01DX009 (ip), vehicle: saline with Tween-80
[2] = dose: 100.0 mg/kg/injection, schedule: Q01DX009 (ip), vehicle: saline with Tween-80
[3] = dose: 200.0 mg/kg/injection, schedule: Q01DX009 (ip), vehicle: saline with Tween-80
[4] = dose: 400.0 mg/kg/injection, schedule: Q01DX009 (ip), vehicle: saline with Tween-80
[5] = dose: 60.0 mg/kg/injection, schedule: Q01DX005 (ip), vehicle: saline with Tween-80
[6] = dose: 120.0 mg/kg/injection, schedule: Q01DX005 (ip), vehicle: saline with Tween-80
[7] = dose: 240.0 mg/kg/injection, schedule: Q01DX005 (ip), vehicle: saline with Tween-80
[8] = dose: 30.0 mg/kg/injection, schedule: Q01DX005 (ip), vehicle: Klucel (hydroxypropylcellulose) (HPC)
[9] = dose: 120.0 mg/kg/injection, schedule: Q01DX005 (ip), vehicle: Klucel (hydroxypropylcellulose) (HPC)
[10] = dose: 240.0 mg/kg/injection, schedule: Q01DX005 (ip), vehicle: Klucel (hydroxypropylcellulose) (HPC)
[11] = dose: 100.0 mg/kg/injection, schedule: Q04DX003 (ip), vehicle: Klucel (hydroxypropylcellulose) (HPC)
[12] = dose: 200.0 mg/kg/injection, schedule: Q04DX003 (ip), vehicle: Klucel (hydroxypropylcellulose) (HPC)
[13] = dose: 400.0 mg/kg/injection, schedule: Q04DX003 (ip), vehicle: Klucel (hydroxypropylcellulose) (HPC)
[14] = dose: 6.25 mg/kg/injection, schedule: Q01DX009 (ip), vehicle: saline

Measured: T/C

Nn1c(N/N=C\c2ccccc2)nnc1N/N=C/c1ccccc1
inactive: dose: 50.0 mg/kg/injection, schedule: Q01DX001 (ip), vehicle: Klucel (hydroxypropylcellulose) (HPC) 113 % of control | dose: 100.0 mg/kg/injection, schedule: Q01DX001 (ip), vehicle: Klucel (hydroxypropylcellulose) (HPC) 105 % of control

CS/C(=N\N=C(/C)c1ccccn1)SS/C(=N/N=C(\C)c1ccccn1)SC
inactive: dose: 12.5 mg/kg/injection, schedule: Q01DX005 (ip), vehicle: saline + Tween-80 + alcohol 98 % of control | dose: 25.0 mg/kg/injection, schedule: Q01DX005 (ip), vehicle: saline + Tween-80 + alcohol 97 % of control | dose: 50.0 mg/kg/injection, schedule: Q01DX005 (ip), vehicle: saline + Tween-80 + alcohol 101 % of control and 103 % of control | dose: 100.0 mg/kg/injection, schedule: Q01DX005 (ip), vehicle: saline + Tween-80 + alcohol 111 % of control

COc1ncc[n+]([O-])n1
inactive: [1] 103 % of control | [2] 100 % of control and 108 % of control and 111 % of control | [3] 100 % of control and 102 % of control and 123 % of control | [4] 93 % of control

C[C@]12CC[C@H](OC(=O)/C=C\c3ccc(N(CCCl)CCCl)cc3)CC1CC[C@@H]1C2CC[C@]2(C)NC(=O)CCC12 (stereo partly specified)
inactive: dose: 100.0 mg/kg/injection, schedule: Q01DX001 (ip), vehicle: saline with Tween-80 100 % of control | dose: 200.0 mg/kg/injection, schedule: Q01DX001 (ip), vehicle: saline with Tween-80 100 % of control | dose: 400.0 mg/kg/injection, schedule: Q01DX001 (ip), vehicle: saline with Tween-80 100 % of control

CN1C(=O)C2C3C=CC(C2C1=O)C1C2C(=O)N(C)C(=O)C2C31 (stereo unspecified)
inactive: dose: 25.0 mg/kg/injection, schedule: Q01DX009 (ip), vehicle: Klucel (hydroxypropylcellulose) (HPC) 100 % of control | dose: 50.0 mg/kg/injection, schedule: Q01DX009 (ip), vehicle: Klucel (hydroxypropylcellulose) (HPC) 108 % of control | dose: 100.0 mg/kg/injection, schedule: Q01DX009 (ip), vehicle: Klucel (hydroxypropylcellulose) (HPC) 111 % of control | dose: 200.0 mg/kg/injection, schedule: Q01DX009 (ip), vehicle: Klucel (hydroxypropylcellulose) (HPC) 104 % of control and 111 % of control

CC1CC(O)C2C1CC1CCC2(C)OC1(C)C (stereo unspecified)
inactive: [2] 105 % of control | [3] 105 % of control | [4] 100 % of control

Cc1nc2ccccc2nc1C1=C(O)c2ccccc2CC1=O
inactive: [5] 95 % of control | [6] 90 % of control | [7] 93 % of control

O=C1C2=C(Nc3cc([N+](=O)[O-])ccc3N2)OC1c1ccc2c(c1)OCO2 (stereo unspecified)
inactive: dose: 1.87 mg/kg/injection, schedule: Q01DX005 (ip), vehicle: Klucel (hydroxypropylcellulose) (HPC) 89 % of control | dose: 3.75 mg/kg/injection, schedule: Q01DX005 (ip), vehicle: Klucel (hydroxypropylcellulose) (HPC) 90 % of control | dose: 7.5 mg/kg/injection, schedule: Q01DX005 (ip), vehicle: Klucel (hydroxypropylcellulose) (HPC) 90 % of control | dose: 15.0 mg/kg/injection, schedule: Q01DX005 (ip), vehicle: Klucel (hydroxypropylcellulose) (HPC) 88 % of control | [8] 87 % of control | [9] 89 % of control and 90 % of control | [10] 93 % of control

COC(=O)C(=O)c1c(C(=O)OC)nc2nnc(N)n2c1-c1ccc(O)c(OC)c1
inactive: [5] 92 % of control | [6] 94 % of control | [7] 94 % of control

COc1ccc(S(=O)(=O)c2cc(C)c3ccc4ccccc4c3n2)cc1
inactive: dose: 50.0 mg/kg/injection, schedule: Q01DX005 (ip), vehicle: Klucel (hydroxypropylcellulose) (HPC) 101 % of control | dose: 100.0 mg/kg/injection, schedule: Q01DX005 (ip), vehicle: Klucel (hydroxypropylcellulose) (HPC) 102 % of control | dose: 200.0 mg/kg/injection, schedule: Q01DX005 (ip), vehicle: Klucel (hydroxypropylcellulose) (HPC) 98 % of control

CC1(C)CC23C4COC(=O)C2CCC1C3CC4=O (stereo unspecified)
inactive: dose: 1.5 mg/kg/injection, schedule: Q01DX009 (ip), vehicle: DMSO 94 % of control | dose: 3.0 mg/kg/injection, schedule: Q01DX009 (ip), vehicle: DMSO 107 % of control and 94 % of control | dose: 6.0 mg/kg/injection, schedule: Q01DX009 (ip), vehicle: DMSO 104 % of control and 91 % of control | dose: 12.0 mg/kg/injection, schedule: Q01DX009 (ip), vehicle: DMSO 88 % of control and 95 % of control | dose: 24.0 mg/kg/injection, schedule: Q01DX009 (ip), vehicle: DMSO 90 % of control | dose: 48.0 mg/kg/injection, schedule: Q01DX009 (ip), vehicle: DMSO 106 % of control and 91 % of control

CC(=O)OCC1C(OC(C)=O)C(OC(C)=O)C(COC(C)=O)N1C(C)=O (stereo unspecified)
inactive: [11] 90 % of control | [12] 90 % of control | [13] 87 % of control

Clc1ccccc1C(c1ccccc1)(c1ccccc1)n1ccnc1
inactive: dose: 50.0 mg/kg/injection, schedule: Q01DX009 (ip), vehicle: saline 113 % of control | dose: 100.0 mg/kg/injection, schedule: Q01DX009 (ip), vehicle: saline 113 % of control | dose: 200.0 mg/kg/injection, schedule: Q01DX009 (ip), vehicle: saline 113 % of control

CNc1ccc2ccc(N(C)C)cc2n1
inactive: dose: 12.5 mg/kg/injection, schedule: Q04DX002 (ip), vehicle: Klucel (hydroxypropylcellulose) (HPC) 102 % of control | dose: 25.0 mg/kg/injection, schedule: Q04DX002 (ip), vehicle: Klucel (hydroxypropylcellulose) (HPC) 97 % of control | dose: 50.0 mg/kg/injection, schedule: Q04DX002 (ip), vehicle: Klucel (hydroxypropylcellulose) (HPC) 101 % of control

O=C(CCSC1=NCCCN1)c1ccc(F)cc1
inactive: dose: 12.5 mg/kg/injection, schedule: Q01DX009 (ip), vehicle: saline with Tween-80 111 % of control | dose: 25.0 mg/kg/injection, schedule: Q01DX009 (ip), vehicle: saline with Tween-80 118 % of control | [1] 118 % of control and 120 % of control

CC(=O)c1ccc[n+](Cc2c(Cl)cccc2Cl)c1
inactive: [14] 101 % of control | dose: 12.5 mg/kg/injection, schedule: Q01DX009 (ip), vehicle: saline 100 % of control and 104 % of control | dose: 25.0 mg/kg/injection, schedule: Q01DX009 (ip), vehicle: saline 101 % of control and 114 % of control

O=C(OC(c1ccccc1)(C(F)(F)F)C(F)(F)F)c1ccc(Cl)cc1
inactive: dose: 100.0 mg/kg/injection, schedule: Q04DX002 (ip), vehicle: Klucel (hydroxypropylcellulose) (HPC) 92 % of control | dose: 200.0 mg/kg/injection, schedule: Q04DX002 (ip), vehicle: Klucel (hydroxypropylcellulose) (HPC) 98 % of control | dose: 400.0 mg/kg/injection, schedule: Q04DX002 (ip), vehicle: Klucel (hydroxypropylcellulose) (HPC) 97 % of control

COC1=C(OC)C(=O)C(SCCCCCCC2CCCCC2)=C(Cl)C1=O
inactive: dose: 0.2 mg/kg/injection, schedule: Q01DX009 (ip), vehicle: saline 95 % of control | dose: 0.4 mg/kg/injection, schedule: Q01DX009 (ip), vehicle: saline 101 % of control | dose: 0.8 mg/kg/injection, schedule: Q01DX009 (ip), vehicle: saline 101 % of control | dose: 1.6 mg/kg/injection, schedule: Q01DX009 (ip), vehicle: saline 102 % of control | dose: 3.13 mg/kg/injection, schedule: Q01DX009 (ip), vehicle: saline 105 % of control | [14] 106 % of control

CN(C)c1ccc(C(=O)C2CCCC(C)(C)C2)cc1 (stereo unspecified)
inactive: [11] 98 % of control | [12] 99 % of control | [13] 91 % of control

CCC12CCC(=O)C=C1CCCC2=O (stereo unspecified)
inactive: dose: 25.0 mg/kg/injection, schedule: Q01DX009 (ip), vehicle: saline sonified 104 % of control | dose: 50.0 mg/kg/injection, schedule: Q01DX009 (ip), vehicle: saline sonified 86 % of control | dose: 100.0 mg/kg/injection, schedule: Q01DX009 (ip), vehicle: saline sonified 109 % of control

CS/C(=C\c1ccc(C(=O)c2ccc(C)cc2)n1C)S(C)=O (stereo unspecified)
inactive: [8] 94 % of control | dose: 60.0 mg/kg/injection, schedule: Q01DX005 (ip), vehicle: Klucel (hydroxypropylcellulose) (HPC) 91 % of control and 94 % of control | [9] 92 % of control | [10] 88 % of control

Cn1c(=O)ccc2ccc(N(CCO)CCO)nc21
inactive: dose: 50.0 mg/kg/injection, schedule: Q04DX003 (ip), vehicle: saline with Tween-80 98 % of control | dose: 100.0 mg/kg/injection, schedule: Q04DX003 (ip), vehicle: saline with Tween-80 94 % of control | dose: 200.0 mg/kg/injection, schedule: Q04DX003 (ip), vehicle: saline with Tween-80 103 % of control

CC(Cc1ccc(O)cc1)NCC(O)c1ccc(O)c(O)c1 (stereo unspecified)
inactive: [1] 104 % of control | [2] 109 % of control
